Laboratory results as given in US7964701B2, “Alpha-fetoprotein peptides” (Albany Medical College, priority 2006, dated 2011).
Where a SMILES comes first, the peptide text is derived from it. Where no end group is shown, it is not given here. [ ]: non-standard residue; d: D form. Hyp = O=C(O)[C@@H]1C[C@@H](O)CN1

How the values were obtained:
[1] = system: E2-stimulated growth of mouse uterus; assay: Immature mouse uterine growth assay; type: in vivo; conditions: for Inhibition ± S.E, % Immature mouse uterine growth Intraperitoneal / antiestrogenic activity (inhibition of E2-stimulated uterine growth), in words: 1 μg/mouse intraperitoneally; for antiestrogenic activity (inhibition of E2-stimulated uterine growth), in words: Table 3 discussion; for dose-response profile, inhibition of E2-stimulated uterine growth: FIG. 5; for Activity % ± SD (percent growth inhibition of uterus): dose 1 ug/animal
From the text: The anti-breast cancer activity of the linear and cyclic 8-mer and 9-mer AFP-derived peptides is well-documented using the immature mouse uterine growth assay and the human breast cancer xenograft assay; there is a strong correlation between the results of these two assays. To evaluate peptide-induced inhibition by the peptide of the present invention of estrogen-stimulated proliferation of normal tissue, the immature mouse uterine growth assay was utilized. Briefly, 13-15 day-old Swiss/Webster female mice, 6-8 g in body weight, were distributed into treatment groups of 5 mice per group so that each group contained animals of the same range of body weight. The peptide of the invention was injected i.p., s.c., or p.o. into the mice. One hour later, estradiol (E2) or vehicle control for E2 was injected i.p. Twenty-two hours after the second injection, uteri were harvested, trimmed free of mesenteries, and immediately weighed. The uterine weights were normalized to mouse body weights to compensate for differences in body weight among litters of the same age. Experiments employed a minimum of five mice per group and the mean normalized uterine weight±SE for each group was calculated. Percent growth inhibition in a test group was calculated from normalized uterine wet weights as described below.
Differences between groups were evaluated, employing the nonparametric Wicoxon ranks sum test. In all cases, growth inhibitions that were greater than 25% were significant at P≦0.05.
In other experiments, peptide analogs comprising the sequences TOVN SEQ ID NO.: 3) and TPVN (SEQ ID NO.: 2) were assessed for their ability to inhibit E2-stimulated growth of mouse uterus after intraperitoneal and oral administration.
The ability to inhibit E2-stimulated growth of normal mouse uterus was used as a screening assay for biological activity of AFPep analogs. In general, inhibitory activity≧20% is considered to be biologically significant. Each analog's inhibitory effect on E2-stimulated growth was compared to AFPep (a positive control) and to PGVGQ (SEQ ID NO.: 44)(a negative control). PGVGQ (SEQ ID NO.: 44) (amino acids 478-482 of AFP) is a portion of the primary structure of AFP near to the anti-cancer active site of AFP and is comprised of amino acids (P, V, and G) that are important components of AFPep. A scrambled analog of AFPep was not used because some scrambled peptides retain low biological activity (data not shown). In Table 3, bold letters denote the sequences containing a putative Type I beta-turn, which was postulated to be necessary for antiestrogenic activity.

[2] = system: T47D human breast cancer cells; conditions: for concentration up to which E2-stimulated T47D growth was inhibited in a concentration dependent manner / activity maintained / dose response profile, inhibition of E2-stimulated T47D cell growth: FIG. 6; for inhibition of E2-stimulated T47D cell growth, in words: Table 3 discussion, 1 μM
Description: T47D cells were obtained from ATCC® (Rockville, Md.) and grown in culture according recommended protocols. Cells were treated with 1 nM estrogen or 100 nM TOVNO (SEQ ID NO.: 7)/1 nM estrogen. Control cells received 10% estrogen-free media. Cells were treated for seven days.
A number of AFPep analogs were assessed for in vitro anticancer activity.

[3] = system: MCF-7 human breast cancer cells; assay: MCF-7 human tumor xenograft assay in SCID mice; type: in vivo, mouse; conditions: for change in mean tumor volume: FIG. 1
Description: The peptides of the invention were evaluated for their ability to inhibit tumor growth in a human tumor xenograft assay. Briefly, MCF-7 human breast cancer cells were obtained from ATCC® (Rockville, Md.) and were grown in DMEM supplemented with 5% FCS, 1% non-essential amino acids, 10 ng/ml insulin, 2 mM L-glutamine, 100 units/ml penicillin, and 100 μg/ml streptomycin. MCF-7 cells from culture were solidified into a fibrin clot. The tumor-containing clots were cut into pieces about 1.5 mm in diameter and implanted under the kidney capsule of severe combined immunodeficient (ICR-SCID) mice (Taconic Farms, Germantown, N.Y.) as described in Bennett et al. (Clin. Cancer Res. 1998; 4:2877-84).
Estrogen supplementation of mice was required for the growth of MCF-7 tumors. Supplementation was accomplished by s.c. implantation of a Silastic tubing capsule containing solid E2 (2 mm in length) inserted on the day of tumor implantation. Tumor size was evaluated during survival laparotomy using a dissecting microscope at the time of tumor implantation and at days 15 and 30 after tumor implantation.
The T47D human breast cancer cell line is responsive in culture, but it was a less reliable tool when grown as a xenograft tumor in immune deficient mice, having a take-rate of <60% in these mice. However, the MCF-7 human breast cancer cell line has a tumor take-rate of 100% in immune deficient mice and is completely dependent on E2 for growth in these mice (2). Consequently, MCF-7 xenografts were used as a model for ER+human breast cancer to evaluate, in vivo, the effectiveness of TOVNO (SEQ ID NO.: 7) and TOVNOGNEK (SEQ ID NO.: 34) as anticancer agents.

[4] = once a day 10 μg per mouse i.p., FIG. 7b
[5] = once a day 100 μg by oral gavage, FIG. 7a

“EMTPV [5-mer outside the pharmacophoric region]” was tested, and the “Inhibition ± S.E, % Immature mouse uterine growth Intraperitoneal” value [1] was 5 ± 4% and the “antiestrogenic activity (inhibition of E2-stimulated uterine growth), in words” value [1] was “little or no antiestrogenic activity”.

In the case of `CC(C)[C@H](NC(=O)[C@@H]1C[C@@H](O)CN1C(=O)[C@@H](N)[C@@H](C)O)C(=O)N[C@@H](CC(N)=O)C(=O)N1C[C@H](O)C[C@H]1C(N)=O` [TOVNO] (H-T[Hyp]VN[Hyp]-NH2; N-terminus assumed), the “dose-response profile, inhibition of E2-stimulated uterine growth” value (“dose-response profile, inhibition” for short) [1] is reported as “biphasic dose-response curve”, the “dose up to which E2-stimulated uterine growth was inhibited in a dose-dependent manner” value ([1]; FIG. 5c) is reported as “up to 1 μg/mouse” and the “antiestrogenic activity (inhibition of E2-stimulated uterine growth), in words” value [1] is reported as “significantly inhibited E2-stimulated uterine growth”. For the same compound, the “estrogen-stimulated T47D cell proliferation” value ([2]; 100 nM peptide/1 nM estrogen, seven days, FIG. 3) was “T47D cell proliferation was reduced”, the “concentration up to which E2-stimulated T47D growth was inhibited in a concentration dependent manner / activity maintained” value [2] was “up to 10^−7 M” and the “dose response profile, inhibition of E2-stimulated T47D cell growth” value (“dose response profile, inhibition” for short) [2] was “lost activity with increasing concentration thereafter”. The “inhibition of E2-stimulated T47D cell growth, in words” value [2] was “significantly inhibited”, the “change in mean tumor volume” value ([3]; 100 μg/day p.o.) was “significantly decreased the increase in tumor volume” and the “change in mean tumor volume” value ([3]; intraperitoneal 1 μg/day) was “effective in reducing the increase in mean tumor volume”. The “change in mean tumor volume” value ([3]; intraperitoneal 10 μg/day) was “effective in reducing the increase in mean tumor volume”, the “growth of ER+ human MCF-7 breast cancer tumors” value [3, 4] was “significantly inhibited” and the “growth of ER+ human MCF-7 breast cancer tumors” value [3, 5] was “significantly inhibited”.

With “MTOVNOG (MT[Hyp]VN[Hyp]G; not fully specified (C-terminus))” the “Inhibition ± S.E, % Immature mouse uterine growth Intraperitoneal” value [1] was 28 ± 2 % and the “antiestrogenic activity (inhibition of E2-stimulated uterine growth), in words” value [1] was “significantly inhibited E2-stimulated uterine growth”.

With `CC(C)[C@H](NC(=O)[C@@H]1C[C@@H](O)CN1)C(=O)N[C@@H](CC(N)=O)C(=O)N1C[C@H](O)C[C@H]1C(N)=O` [OVNO] (H-[Hyp]VN[Hyp]-NH2; N-terminus assumed) the “antiestrogenic activity (inhibition of E2-stimulated uterine growth), in words” value [1] was “lacked antiestrogenic activity” and the “inhibition of E2-stimulated T47D cell growth, in words” value [2] was “lacked inhibitory activity”.

With “EKTPV [5-mer outside the pharmacophoric region]” the “Inhibition ± S.E, % Immature mouse uterine growth Intraperitoneal” value [1] was 0% and the “antiestrogenic activity (inhibition of E2-stimulated uterine growth), in words” value [1] was “little or no antiestrogenic activity”.

`CC(C)[C@H](NC(=O)[C@@H]1C[C@@H](O)CN1C(=O)[C@@H](NC(=O)[C@H](CCCCN)NC(=O)[C@@H](N)CCC(=O)O)[C@@H](C)O)C(=O)N[C@@H](CC(N)=O)C(=O)N1C[C@H](O)C[C@H]1C(=O)NCC(=O)N[C@@H](CC(N)=O)C(N)=O` [EKTOVNOGN] (H-EKT[Hyp]VN[Hyp]GN-NH2; N-terminus and C-terminus assumed) was tested, and the “dose-response profile, inhibition” value [1] was “biphasic dose-response curve”, the “antiestrogenic activity (inhibition of E2-stimulated uterine growth), in words” value [1] was “active at this dose” and the “dose response profile, inhibition” value [2] was “biphasic dose response curve”.

For `CC(C)[C@H](NC(=O)[C@@H]1C[C@@H](O)CN1C(=O)[C@@H](N)[C@@H](C)O)C(=O)N[C@@H](CC(N)=O)C(N)=O` [TOVN] (H-T[Hyp]VN-NH2; N-terminus assumed), the “antiestrogenic activity (inhibition of E2-stimulated uterine growth), in words” value [1] was “weak antiestrogenic activity” and the “inhibition of E2-stimulated T47D cell growth, in words” value [2] was “very weak inhibitory activity”.

With “EMTOV (EMT[Hyp]V; not fully specified (C-terminus)) [5-mer outside the pharmacophoric region]” the “Inhibition ± S.E, % Immature mouse uterine growth Intraperitoneal” value [1] was 1 ± 1% and the “antiestrogenic activity (inhibition of E2-stimulated uterine growth), in words” value [1] was “little or no antiestrogenic activity”.

With TPVN the “Inhibition ± S.E, % Immature mouse uterine growth Intraperitoneal” value [1] was 29 ± 1 % and the “Activity % ± SD (percent growth inhibition of uterus)” value [1] was 27%.

KTPVNPG was tested, and the “Inhibition ± S.E, % Immature mouse uterine growth Intraperitoneal” value [1] was 34 ± 2 % and the “antiestrogenic activity (inhibition of E2-stimulated uterine growth), in words” value [1] was “significantly inhibited E2-stimulated uterine growth”.

In the case of PVNP, the “Inhibition ± S.E, % Immature mouse uterine growth Intraperitoneal” value [1] is reported as 6 ± 3% and the “Activity % ± SD (percent growth inhibition of uterus)” value [1] is reported as 10%.

`CC(C)[C@H](NC(=O)[C@@H]1C[C@@H](O)CN1C(=O)[C@@H](N)[C@@H](C)O)C(=O)N[C@@H](CC(N)=O)C(=O)N1C[C@H](O)C[C@H]1C(=O)NCC(=O)N[C@@H](CC(N)=O)C(=O)N[C@@H](CCC(=O)O)C(=O)N[C@@H](CCCCN)C(N)=O` [TOVNOGNEK] (H-T[Hyp]VN[Hyp]GNEK-NH2; N-terminus and C-terminus assumed) was tested, and the “dose-response profile, inhibition” value [1] was “maintained its inhibitory effect at high doses”, the “antiestrogenic activity (inhibition of E2-stimulated uterine growth), in words” value [1] was “significantly inhibited E2-stimulated uterine growth” and the “concentration up to which E2-stimulated T47D growth was inhibited in a concentration dependent manner / activity maintained” value [2] was ≤ 10^−4 M. For the same compound, the “dose response profile, inhibition” value [2] was “maintained its activity with increasing concentrations”, the “inhibition of E2-stimulated T47D cell growth, in words” value [2] was “comparable to AFPep” and the “growth of ER+ human MCF-7 breast cancer tumors” value [3, 4] was “significantly inhibited”. The “growth of ER+ human MCF-7 breast cancer tumors” value [3, 5] was “significantly inhibited”.

For `CC(C)[C@H](NC(=O)[C@@H]1C[C@@H](O)CN1C(=O)[C@@H](NC(=O)[C@H](CCCCN)NC(=O)[C@@H](N)CCC(=O)O)[C@@H](C)O)C(N)=O` [EKTOV] (H-EKT[Hyp]V-NH2; N-terminus assumed), the “antiestrogenic activity (inhibition of E2-stimulated uterine growth), in words” value [1] was “little or no antiestrogenic activity”.

`CC(C)[C@@H]1NC(=O)[C@@H]2C[C@@H](O)CN2C(=O)[C@H]([C@@H](C)O)NC(=O)[C@H](CCCCN)NC(=O)[C@H](CCC(=O)O)NC(=O)[C@H](CC(N)=O)NC(=O)CNC(=O)[C@@H]2C[C@@H](O)CN2C(=O)[C@H](CC(N)=O)NC1=O` [cyclo[EKTOVNOGN], reference compound] (cyclo(EKT[Hyp]VN[Hyp]GN)) was tested, and the “dose-response profile, inhibition” value [1] was “attenuated but did not completely eliminate this loss of activity with increasing doses”, the “concentration up to which E2-stimulated T47D growth was inhibited in a concentration dependent manner / activity maintained” value [2] was “up to 10^−6 M” and the “dose response profile, inhibition” value [2] was “lost activity at higher concentrations”. For the same compound, the “Inhibition ± S.E, % T47D cell proliferation” value ([2]; peptide 1 μM, E2-stimulated) was 51 ± 4 %, the “growth of ER+ human MCF-7 breast cancer tumors” value [3, 4] was “significantly inhibited” and the “growth of ER+ human MCF-7 breast cancer tumors” value [3, 5] was “significantly inhibited”.

With TPVNP the “Inhibition ± S.E, % Immature mouse uterine growth Intraperitoneal” value [1] was 27 ± 1 % and the “Activity % ± SD (percent growth inhibition of uterus)” value [1] was 26%.

For `CC(C)[C@H](NC(=O)[C@@H]1C[C@@H](O)CN1C(=O)[C@@H](NC(=O)[C@@H](N)CCCCN)[C@@H](C)O)C(=O)N[C@@H](CC(N)=O)C(=O)N1C[C@H](O)C[C@H]1C(=O)NCC(N)=O` [KTOVNOG] (H-KT[Hyp]VN[Hyp]G-NH2; N-terminus and C-terminus assumed), the “antiestrogenic activity (inhibition of E2-stimulated uterine growth), in words” value [1] was “significantly inhibited E2-stimulated uterine growth”.

In the case of `CC(C)[C@H](NC(=O)[C@@H]1C[C@@H](O)CN1)C(=O)N[C@@H](CC(N)=O)C(=O)N1C[C@H](O)C[C@H]1C(=O)NCC(N)=O` [OVNOG] (H-[Hyp]VN[Hyp]G-NH2; N-terminus assumed), the “antiestrogenic activity (inhibition of E2-stimulated uterine growth), in words” value [1] is reported as “weakly inhibited E2-stimulated uterine growth”.
